US20250325688A1, “ANTIBODY-DRUG CONJUGATE CONTAINING PROTEIN DEGRADATION AGENT BIOACTIVE COMPOUND, METHOD FOR PREPARING SAME, AND USE THEREOF” (Medilink Therapeutics (Suzhou) Co., Ltd., priority 2022, published 2025)
Read-outs that look alike come from different tables or passages of the source. Values belong to the molecule of their own block, whether it stands above or below them.

What was measured:
[1] = system: IKZF1/3; conditions: clinical results shown at AACR April 2022; cited from earlier work
[2] = system: MCF7 cells; assay: Inhibitory activity of payloads on cell proliferation (Cell titer glo); assay type: cell-based; conditions: for EC50: 4 days culture
Description: (§1) The cells were incubated in an incubator at 37° C. overnight. The payload to be tested was dissolved in DMSO, and the resulting solution was aliquoted and cryopreserved at −80° C. The next day, the payload to be tested was subjected to 4-fold dilution to a maximum concentration of 10000 nM for 10 points using the respective complete medium. 100 µL of the diluted drug was added to the cell culture wells (2 replicates per well). After the cells were cultured at 37° C. for 4 days, 50 μL of Cell titer glo substrate was added to each well. After the cells were incubated for 5 min, the fluorescence values were measured.

[3] = system: NUGC4 cells; assay: as above; assay type: cell-based; conditions: for EC50: 4 days culture
Description: as §1

[4] = system: N87 cells; assay: as above; assay type: cell-based; conditions: for EC50: 4 days culture
Description: as §1

[5] = molecular target: T1, human B7H3-4IgG-his (human) (UniProt Q5ZPR3); assay: ELISA, coated human B7H3-4IgG-his, anti-human Fc-HRP detection
T1 sequence: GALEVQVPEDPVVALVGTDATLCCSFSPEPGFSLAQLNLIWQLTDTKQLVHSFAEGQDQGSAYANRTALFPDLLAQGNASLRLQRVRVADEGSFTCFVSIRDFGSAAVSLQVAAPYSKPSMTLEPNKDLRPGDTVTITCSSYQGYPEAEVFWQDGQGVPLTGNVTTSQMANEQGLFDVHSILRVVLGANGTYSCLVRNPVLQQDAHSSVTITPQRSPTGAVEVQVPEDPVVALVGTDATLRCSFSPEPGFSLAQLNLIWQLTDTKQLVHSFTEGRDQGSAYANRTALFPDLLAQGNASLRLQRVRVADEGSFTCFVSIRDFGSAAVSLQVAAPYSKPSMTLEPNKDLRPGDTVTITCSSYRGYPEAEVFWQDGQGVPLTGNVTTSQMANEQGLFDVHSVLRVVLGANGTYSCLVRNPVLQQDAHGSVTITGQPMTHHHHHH

[6] = molecular target: T2, B7H3 on tumor cells (MCF-7, A549, PC-3) (human) (UniProt Q5ZPR3); assay: flow cytometry on MCF-7 tumor cells
T2 sequence (looked up): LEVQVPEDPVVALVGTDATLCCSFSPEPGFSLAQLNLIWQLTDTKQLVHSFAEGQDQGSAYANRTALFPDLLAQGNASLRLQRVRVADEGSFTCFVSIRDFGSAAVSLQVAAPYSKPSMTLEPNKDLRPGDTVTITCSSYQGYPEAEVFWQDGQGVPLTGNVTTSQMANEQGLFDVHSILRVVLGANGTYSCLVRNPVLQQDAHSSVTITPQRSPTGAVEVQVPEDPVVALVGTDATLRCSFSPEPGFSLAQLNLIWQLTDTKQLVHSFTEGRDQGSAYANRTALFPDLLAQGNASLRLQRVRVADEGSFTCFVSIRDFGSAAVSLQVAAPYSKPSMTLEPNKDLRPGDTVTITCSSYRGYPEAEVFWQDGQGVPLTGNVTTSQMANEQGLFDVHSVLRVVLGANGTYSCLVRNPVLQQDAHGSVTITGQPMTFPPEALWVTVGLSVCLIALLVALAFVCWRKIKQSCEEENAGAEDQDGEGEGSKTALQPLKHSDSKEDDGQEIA

[7] = molecular target: T1, human B7H3-4IgG-his (human); assay: ELISA, coated human B7H3-4IgG-his, anti-human Fc-HRP detection; remark: listed apart in the source
[8] = molecular target: T2, B7H3 on tumor cells (MCF-7, A549, PC-3) (human); assay: flow cytometry on A549 tumor cells
[9] = molecular target: monkey B7H3-4IgG-his (monkey); assay: ELISA, coated monkey B7H3-4IgG-his, anti-human Fc-HRP detection
[10] = molecular target: T2, B7H3 on tumor cells (MCF-7, A549, PC-3) (human); assay: flow cytometry on PC-3 tumor cells
[11] = molecular target: monkey B7H3-4IgG-his (monkey); assay: ELISA, coated monkey B7H3-4IgG-his, anti-human Fc-HRP detection; remark: listed apart in the source
[12] = molecular target: T2, B7H3 on tumor cells (MCF-7, A549, PC-3) (human); assay: flow cytometry on A549 tumor cells; remark: listed apart in the source
[13] = molecular target: T2, B7H3 on tumor cells (MCF-7, A549, PC-3) (human); assay: flow cytometry on MCF-7 tumor cells; remark: listed apart in the source

Molecule: O=C1CC[C@H](N2C(=O)c3cccc4c(Cc5ccc(CN6CCOCC6)cc5)ccc2c34)C(=O)N1 [CFT7455]
dose-limiting toxicity in the clinic [1]: decreased neutrophil was dose-limiting

EC50 ([2]; Homo sapiens, MCF7, 96 h): 983 nM
Molecule: CNCCOCCc1ccc(NC(=O)NCc2ccc3c(c2)CN(C2CCC(=O)NC2=O)C3=O)cc1Cl (stereo not drawn) [Control compound 1]
EC50 ([3]; Homo sapiens, NUGC-4, 96 h): 345 nM
EC50 ([4]; 96 h): 572 nM

EC50 ([2]; Homo sapiens, MCF7, 96 h): 62.1 nM
Molecule: CN(CCCc1ccc(NC(=O)NCc2ccc3c(c2)CN(C2CCC(=O)NC2=O)C3=O)cc1Cl)C(=O)CO (stereo not drawn) [PL-1, N-(3-(2-chloro-4-(3-((2-(2,6-dioxopiperidin-3-yl)-1-oxoisoindolin-5-yl)methyl)ureido)phenyl)propyl)-2-hydroxy-N-methylacetamide]
inhibitory activity on the proliferation of MCF7 cells (in words) [2]: significantly superior to that of control compound 1
inhibitory activity on the proliferation of N87 cells (in words) [4]: significantly superior to that of control compound 1
EC50 ([4]; 96 h): 14.3 nM

Molecule: CN(CCCc1ccc(C(F)(F)C(=O)NCc2ccc3c(c2)CN(C2CCC(=O)NC2=O)C3=O)cc1Cl)C(=O)CO (stereo not drawn) [PL-2]
EC50 ([4]; 96 h): 193 nM

Molecule: CN(CCCc1ccc(NC(=O)NCc2ccc3c(c2)C(=O)N(C2CCC(=O)NC2=O)C3=O)cc1Cl)C(=O)CO (stereo not drawn) [PL-3, N-(3-(2-chloro-4-(3-((2-(2,6-dioxopiperidin-3-yl)-1,3-dioxoisoindol-5-yl)methyl)ureido)phenyl)propyl)-2-hydroxy-N-methylacetamide]
EC50 ([4]; 96 h): 851 nM

Molecule: CN(CCOCCc1ccc(NC(=O)NCc2ccc3c(c2)CN(C2CCC(=O)NC2=O)C3=O)cc1Cl)C(=O)CO (stereo not drawn) [PL-4, N-(2-chloro-4-(3-(2-(2,6-dioxopiperidin-3-yl)-1-oxoisoindolin-5-methyl)ureido)phenethoxy)ethyl-2-hydroxy-N-methylacetamide]
inhibitory activity on the proliferation of MCF7 cells (in words) [2]: significantly superior to that of control compound 1
EC50 [2]: 44.7 nM
inhibitory activity on the proliferation of NUGC4 cells (in words) [3]: significantly superior to that of control compound 1
EC50 [3]: 43.2 nM
inhibitory activity on the proliferation of N87 cells (in words) [4]: significantly superior to that of control compound 1
EC50 [4]: 36.1 nM

EC50 ([2]; Homo sapiens, MCF7, 96 h): 228 nM
Molecule: CN(CCCc1ccc(NC(=O)NCc2ccc3c(c2)CN(C2CCC(=O)NC2=O)C3=O)cc1)C(=O)CO (stereo not drawn) [PL-5, N-(3-(4-(3-(2-(2,6-dioxopiperidin-3-yl)-1-oxoisoindolin-5-methyl)ureido)phenyl)propyl)-2-hydroxy-N-methylacetamide]
EC50 ([3]; Homo sapiens, NUGC-4, 96 h): 502 nM
EC50 ([4]; 96 h): 1590 nM

EC50 [5]: 0.048 nM
EC50 [6]: 1.71 nM
Maximum MFI [6]: 84000
EC50 [7]: 0.0519 nM
EC50 [8]: 1.05 nM
Maximum MFI [8]: 48000
EC50 [9]: 0.167 nM
EC50 [10]: 0.618 nM
Maximum MFI [10]: 6440
EC50 [11]: 3.92 nM
EC50 [12]: 1.86 nM
Maximum MFI [12]: 8270
EC50 [13]: 1.36 nM
Maximum MFI [13]: 63200
B1: B7H3-C1 antibody (antibody, INN chains, looked up, V domains shown)
VH: QVQLVQSGAEVKKPGSSVKVSCKASGYTFTNYVMHWVRQAPGQGLEWMGYINPYNDDVKYNEKFKGRVTITADESTSTAYMELSSLRSEDTAVYYCARWGYYGSPLYYFDYWGQGTLVTVSS
VL: EIVLTQSPATLSLSPGERATLSCRASSRLIYMHWYQQKPGQAPRPLIYATSNLASGIPARFSGSGSGTDFTLTISSLEPEDFAVYYCQQWNSNPPTFGQGTKVEIK
